How the values were obtained:
Experiment in all cases: relative viability (nuclei count vs DMSO), 5 days (fraction); higher = more cells survive
[1] = system: EPLC-272H
Method in brief: (§1)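 Lung cancer cell lines were seeded in 1536-well plates and dosed by pin tool the next day, with either a single drug or a fixed anchor-drug dose combined with five library-drug doses (not always all listed) spaced in √10 steps. Five days later, one step fixed the cells and stained their nuclei (final 0.05% Triton X-100, 1% formaldehyde, 1 ug/ml Hoechst), and nuclei were counted on 4× images. Relative viability is the nuclei count in treated wells divided by the count in vehicle wells, and each value is the median of duplicate plates.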

[2] = system: HCC-78
Method in brief: as §1

[3] = system: CAL-12T
Method in brief: as §1

[4] = system: HCC-15
Method in brief: as §1

[5] = system: NCI-H441
Method in brief: as §1

[6] = system: ABC-1
Method in brief: as §1

[7] = system: NCI-H3122
Method in brief: as §1

[8] = system: LXF-289
Method in brief: as §1

[9] = system: UMC-11
Method in brief: as §1

[10] = system: NCI-H1975
Method in brief: as §1

[11] = system: COR-L 105
Method in brief: as §1

[12] = system: NCI-H1915
Method in brief: as §1

[13] = system: NCI-H2126
Method in brief: as §1

[14] = system: ChaGo-K-1
Method in brief: as §1

[15] = system: NCI-H322M
Method in brief: as §1

[16] = system: NCI-H358
Method in brief: as §1

[17] = system: NCI-H2023
Method in brief: as §1

[18] = system: HOP-62
Method in brief: as §1

[19] = system: NCI-H2085
Method in brief: as §1

[20] = system: NCI-H1755
Method in brief: as §1

[21] = system: EMC-BAC-2
Method in brief: as §1

[22] = system: NCI-H1666
Method in brief: as §1

Work on `O=c1cc(-c2cccc3c2Sc2ccccc2S3)oc(N2CCOCC2)c1` + CS(=O)(=O)N1CCN(Cc2cc3nc(-c4cccc5[nH]ncc45)nc(N4CCOCC4)c3s2)CC1 [Pictilisib] (partner 1 µM) yielded a relative viability ([1]; first compound 0.08 µM) of 0.321, a relative viability ([1]; first compound 0.253 µM) of 0.334 and a relative viability ([1]; first compound 0.8 µM) of 0.29. For the same compound, the relative viability ([1]; first compound 2.53 µM) was 0.289, the relative viability ([1]; first compound 8 µM) was 0.327 and the relative viability ([2]; first compound 0.08 µM) was 0.182. For the same compound, the relative viability ([2]; first compound 0.253 µM) was 0.199, the relative viability ([2]; first compound 0.8 µM) was 0.207 and the relative viability ([2]; first compound 2.53 µM) was 0.196. For the same compound, the relative viability ([2]; first compound 8 µM) was 0.255, the relative viability ([3]; first compound 0.08 µM) was 0.31 and the relative viability ([3]; first compound 0.253 µM) was 0.482. It also gave a relative viability ([3]; first compound 0.8 µM) of 0.418, a relative viability ([3]; first compound 2.53 µM) of 0.32 and a relative viability ([3]; first compound 8 µM) of 0.397. For the same compound, the relative viability ([4]; first compound 0.08 µM) was 0.732, the relative viability ([4]; first compound 0.253 µM) was 0.858 and the relative viability ([4]; first compound 0.8 µM) was 0.797. The relative viability ([4]; first compound 2.53 µM) was 0.674, the relative viability ([4]; first compound 8 µM) was 0.793 and the relative viability ([5]; first compound 0.08 µM) was 0.533. For the same compound, the relative viability ([5]; first compound 0.253 µM) was 0.472, the relative viability ([5]; first compound 0.8 µM) was 0.513 and the relative viability ([5]; first compound 2.53 µM) was 0.426. The relative viability ([5]; first compound 8 µM) was 0.509, the relative viability ([6]; first compound 0.08 µM) was 0.62 and the relative viability ([6]; first compound 0.253 µM) was 0.739. The relative viability ([6]; first compound 0.8 µM) was 0.607, the relative viability ([6]; first compound 2.53 µM) was 0.666 and the relative viability ([6]; first compound 8 µM) was 0.71. The relative viability ([7]; first compound 0.08 µM) was 0.481, the relative viability ([7]; first compound 0.253 µM) was 0.755 and the relative viability ([7]; first compound 0.8 µM) was 0.452. For the same compound, the relative viability ([7]; first compound 2.53 µM) was 0.595, the relative viability ([7]; first compound 8 µM) was 0.568 and the relative viability ([8]; first compound 0.08 µM) was 0.777. It also gave a relative viability ([8]; first compound 0.253 µM) of 0.791, a relative viability ([8]; first compound 0.8 µM) of 0.896 and a relative viability ([8]; first compound 2.53 µM) of 0.747. It also gave a relative viability ([8]; first compound 8 µM) of 0.849, a relative viability ([9]; first compound 0.08 µM) of 0.815 and a relative viability ([9]; first compound 0.253 µM) of 1.09. It also gave a relative viability ([9]; first compound 0.8 µM) of 0.992, a relative viability ([9]; first compound 2.53 µM) of 0.752 and a relative viability ([9]; first compound 8 µM) of 1. It also gave a relative viability ([10]; first compound 0.08 µM) of 0.276, a relative viability ([10]; first compound 0.253 µM) of 0.311 and a relative viability ([10]; first compound 0.8 µM) of 0.236. The relative viability ([10]; first compound 2.53 µM) was 0.272, the relative viability ([10]; first compound 8 µM) was 0.269 and the relative viability ([11]; first compound 0.08 µM) was 0.502. It also gave a relative viability ([11]; first compound 0.253 µM) of 0.441, a relative viability ([11]; first compound 0.8 µM) of 0.362 and a relative viability ([11]; first compound 2.53 µM) of 0.338. It also gave a relative viability ([11]; first compound 8 µM) of 0.408, a relative viability ([12]; first compound 0.08 µM) of 0.821 and a relative viability ([12]; first compound 0.253 µM) of 1.01. It also gave a relative viability ([12]; first compound 0.8 µM) of 0.904, a relative viability ([12]; first compound 2.53 µM) of 0.828 and a relative viability ([12]; first compound 8 µM) of 0.976. For the same compound, the relative viability ([13]; first compound 0.08 µM) was 0.454, the relative viability ([13]; first compound 0.253 µM) was 0.509 and the relative viability ([13]; first compound 0.8 µM) was 0.412. It also gave a relative viability ([13]; first compound 2.53 µM) of 0.452, a relative viability ([13]; first compound 8 µM) of 0.56 and a relative viability ([14]; first compound 0.08 µM) of 0.649. The relative viability ([14]; first compound 0.253 µM) was 0.624, the relative viability ([14]; first compound 0.8 µM) was 0.777 and the relative viability ([14]; first compound 8 µM) was 1.12. The relative viability ([15]; first compound 0.08 µM) was 0.512, the relative viability ([15]; first compound 0.253 µM) was 0.553 and the relative viability ([15]; first compound 0.8 µM) was 0.419. It also gave a relative viability ([15]; first compound 2.53 µM) of 0.585, a relative viability ([15]; first compound 8 µM) of 0.471 and a relative viability ([16]; first compound 0.08 µM) of 0.311. For the same compound, the relative viability ([16]; first compound 0.253 µM) was 0.328, the relative viability ([16]; first compound 0.8 µM) was 0.351 and the relative viability ([16]; first compound 2.53 µM) was 0.269. For the same compound, the relative viability ([16]; first compound 8 µM) was 0.33, the relative viability ([17]; first compound 0.08 µM) was 0.213 and the relative viability ([17]; first compound 0.253 µM) was 0.294. It also gave a relative viability ([17]; first compound 0.8 µM) of 0.244, a relative viability ([17]; first compound 2.53 µM) of 0.218 and a relative viability ([17]; first compound 8 µM) of 0.218. The relative viability ([18]; first compound 0.08 µM) was 0.782, the relative viability ([18]; first compound 0.253 µM) was 1.02 and the relative viability ([18]; first compound 0.8 µM) was 0.89. The relative viability ([18]; first compound 2.53 µM) was 0.831, the relative viability ([18]; first compound 8 µM) was 0.779 and the relative viability ([19]; first compound 0.08 µM) was 0.44. For the same compound, the relative viability ([19]; first compound 0.253 µM) was 0.586, the relative viability ([19]; first compound 0.8 µM) was 0.476 and the relative viability ([19]; first compound 2.53 µM) was 0.464. The relative viability ([19]; first compound 8 µM) was 0.494, the relative viability ([20]; first compound 0.08 µM) was 0.369 and the relative viability ([20]; first compound 0.253 µM) was 0.489. It also gave a relative viability ([20]; first compound 0.8 µM) of 0.481, a relative viability ([20]; first compound 2.53 µM) of 0.431 and a relative viability ([20]; first compound 8 µM) of 0.444. It also gave a relative viability ([21]; first compound 0.08 µM) of 0.535, a relative viability ([21]; first compound 0.253 µM) of 0.582 and a relative viability ([21]; first compound 0.8 µM) of 0.58. It also gave a relative viability ([21]; first compound 2.53 µM) of 0.548, a relative viability ([21]; first compound 8 µM) of 0.538 and a relative viability ([22]; first compound 0.08 µM) of 0.404. It also gave a relative viability ([22]; first compound 0.253 µM) of 0.416, a relative viability ([22]; first compound 0.8 µM) of 0.323 and a relative viability ([22]; first compound 2.53 µM) of 0.411. For the same compound, the relative viability ([22]; first compound 8 µM) was 0.396.

From the supplement of paper PMC10307832
